# Test results published in patent publication US12692223B2, “Phenyl-sulfamoyl-benzoic acid derivatives as ERAP1-modulators” (GREY WOLF THERAPEUTICS LIMITED, priority 2021, dated 2026).
# pIC50: −log10 of the molar value.
# Molecular target: T1, ERAP1 (Homo sapiens, UniProt Q9NZ08)
# T1 construct: Purified ERAP1(37-941)-10His (ERAP1)
# Test: ERAP1 mediated hydrolysis of an amide substrate measured in a biochemical system (10-mer inhibition assay)
# Conditions: purified ERAP1(37-941)-10His; 10-mer substrate; 23° C. for 1 h; excitation 279 nm, emission 355 nm; read-out: IC50 vs Decapeptide WRVYEKC(Dnp)ALK-acid (where Dnp is Dinitrophenyl maleimide) (10-mer)
# Experimental: Biological Assay 1: ERAP1 Mediated Hydrolysis of an Amide Substrate Measured in a Biochemical System
# • 1× Assay buffer (AB): 25 mM Bis-tris propane, 0.05% w/v • Hydroxypropylmethylcellulose pH 7.75 made with Optima grade water • Decapeptide WRVYEKC(Dnp)ALK-acid (where Dnp is Dinitrophenyl maleimide) (10-mer) • L-Leucine 7-amido-4-methylcoumarin (L-AMC) • Purified ERAP1(37-941)-10His (ERAP1) Assay Procedure:
# 12.5 μL ERAP1 enzyme in 1×AB was combined with 250 nL test compound in DMSO. 12.5 μL of either 240 μM L-AMC in 1×AB or 100 μM 10-mer in 1×AB was added to the reaction and incubated at 23° C. for 1 h. For detection, plates were read at excitation 365 nm and emission 442 nm (L-AMC) or excitation 279 nm and emission 355 nm (10-mer). Compound IC50 was determined using a 4-parameter equation.
# T1 sequence (Q9NZ08 37-941): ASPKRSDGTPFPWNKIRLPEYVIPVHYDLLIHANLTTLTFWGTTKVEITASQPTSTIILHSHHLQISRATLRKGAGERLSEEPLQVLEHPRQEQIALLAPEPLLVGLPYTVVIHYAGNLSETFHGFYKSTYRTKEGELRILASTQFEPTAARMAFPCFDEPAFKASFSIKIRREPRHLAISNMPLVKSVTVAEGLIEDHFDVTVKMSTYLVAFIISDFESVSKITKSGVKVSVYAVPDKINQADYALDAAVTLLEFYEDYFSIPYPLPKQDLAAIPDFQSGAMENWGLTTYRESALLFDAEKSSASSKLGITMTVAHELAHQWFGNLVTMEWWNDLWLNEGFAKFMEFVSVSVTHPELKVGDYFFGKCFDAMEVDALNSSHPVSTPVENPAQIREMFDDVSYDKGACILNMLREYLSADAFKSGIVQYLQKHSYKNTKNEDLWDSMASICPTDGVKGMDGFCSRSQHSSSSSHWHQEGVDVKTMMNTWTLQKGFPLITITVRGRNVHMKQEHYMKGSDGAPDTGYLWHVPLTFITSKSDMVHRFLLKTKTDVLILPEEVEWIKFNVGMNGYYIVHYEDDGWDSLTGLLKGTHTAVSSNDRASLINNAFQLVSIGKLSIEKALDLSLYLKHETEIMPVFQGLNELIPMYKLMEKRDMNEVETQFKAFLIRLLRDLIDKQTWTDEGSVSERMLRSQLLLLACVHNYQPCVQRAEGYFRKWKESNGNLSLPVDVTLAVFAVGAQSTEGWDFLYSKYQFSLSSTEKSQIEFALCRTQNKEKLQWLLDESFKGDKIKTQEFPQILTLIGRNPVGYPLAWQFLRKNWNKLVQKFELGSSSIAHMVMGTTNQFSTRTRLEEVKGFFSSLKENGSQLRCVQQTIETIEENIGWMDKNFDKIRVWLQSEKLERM
row,pIC50,Compound
1,> 9.00,"N#Cc1cc(NS(=O)(=O)c2cc(C(=O)O)ccc2C2CC2)c(OCC23C4C5C6C4C2C6C53)cc1Cl (centres unmarked) [Example 79, 3-(N-(4-chloro-2-(cuban-1-ylmethoxy)-5-cyanophenyl)sulfamoyl)-4-cyclopropylbenzoic acid]"
2,> 9.00,"CO[C@H]1C[C@@H](COc2cc(Cl)c(C#N)cc2NS(=O)(=O)c2cc(C(=O)O)ccc2C2CC2)C1 [Example 47, 3-(N-(4-chloro-5-cyano-2-((cis-3-methoxycyclobutyl)methoxy)phenyl)sulfamoyl)-4-cyclopropylbenzoic acid]"
3,> 9.00,"CC1CCCC1Oc1cc(Cl)c(C#N)cc1NS(=O)(=O)c1cc(C(=O)O)ccc1C1CC1 (single isomer, unassigned) [Example 99, 3-(N-(4-chloro-5-cyano-2-((trans-2-methylcyclopentyl)oxy)-phenyl)sulfamoyl)-4-cyclopropylbenzoic acid]"
4,< 8.30,"N#Cc1cc(NS(=O)(=O)c2cc(C(=O)O)ccc2C2CC2)c(OC2CC3(COC3)C2)cc1Cl [Example 52, 3-(N-(2-((2-oxaspiro[3.3]heptan-6-yl)oxy)-4-chloro-5-cyanophenyl)sulfamoyl)-4-cyclopropylbenzoic acid]"
5,8.30 to 9.00,"O=C(O)c1ccc(C2CC2)c(S(=O)(=O)Nc2cc(C(F)(F)F)ccc2OC2CCCC2)c1 [Example 4, 3-(N-(2-(cyclopentyloxy)^−5-(trifluoromethyl)phenyl)sulfamoyl)-4-cyclopropylbenzoic acid]"
6,> 9.00,"CC1CCCC1Oc1cc(Cl)c(C#N)cc1NS(=O)(=O)c1cc(C(=O)O)ccc1C1CC1 (racemic) [Example 90, 3-(N-(4-chloro-5-cyano-2-((trans-2-methylcyclopentyl)oxy)phenyl)sulfamoyl)-4-cyclopropylbenzoic acid]"
7,> 9.00,"N#Cc1cc(NS(=O)(=O)c2cc(C(=O)O)ccc2C2CC2)c(OC2CCCC23CC3)cc1Cl (centres unmarked) [Example 69, 3-(N-(4-chloro-5-cyano-2-(spiro[2.4]heptan-4-yloxy)phenyl)sulfamoyl)-4-cyclopropylbenzoic acid]"
8,8.30 to 9.00,"N#Cc1cc(NS(=O)(=O)c2cc(C(=O)O)ccc2C2CC2)c(OC2CCC(O)C2)cc1Cl (racemic) [Example 111, 3-(N-(4-chloro-5-cyano-2-((trans-3-hydroxycyclopentyl)oxy)phenyl)sulfa-moyl)-4-cyclopropylbenzoic acid]"
9,8.30 to 9.00,"N#Cc1cc(Cl)c(OC2CCCC2)c(NS(=O)(=O)c2cc(C(=O)O)ccc2C2CC2)c1 [Example 19, 3-(N-(3-chloro-5-cyano-2-(cyclopentyloxy)phenyl)sulfamoyl)-4-cyclopropylbenzoic acid]"
10,> 9.00,"N#Cc1cc(NS(=O)(=O)c2cc(C(=O)O)c(F)cc2C2CC2)c(OC2CCCC2)cc1Cl [Example 16, 5-(N-(4-chloro-5-cyano-2-(cyclopentyloxy)phenyl)sulfamoyl)-4-cyclopropyl-2-fluorobenzoic acid]"
11,> 9.00,"N#Cc1cc(NS(=O)(=O)c2cc(C(=O)O)ccc2C2CC2)c(OC2CCC23CC3)cc1Cl (centres unmarked) [Example 56, 3-(N-(4-chloro-5-cyano-2-(spiro[2.3]hexan-4-yloxy)phenyl)sulfamoyl)-4-cyclopropylbenzoic acid]"
12,> 9.00,"C[C@@H](Oc1cc(Cl)c(C#N)cc1NS(=O)(=O)c1cc(C(=O)O)ccc1C1CC1)C1CCC1 [Example 78, (R)-3-(N-(4-chloro-5-cyano-2-(1-cyclobutylethoxy)phenyl)sulfamoyl)-4-cyclopropylbenzoic acid]"
13,> 9.00,"N#Cc1cc(NS(=O)(=O)c2cc(C(=O)O)ccc2C2CC2)c(O[C@@H]2CCC[C@H]2O)cc1Cl [Example 97, 3-(N-(4-chloro-5-cyano-2-(((1R,2R)−2-hydroxycyclopentyl)oxy)phenyl)sulfamoyl)-4-cyclopropylbenzoic acid]"
14,> 9.00,"N#Cc1cc(NS(=O)(=O)c2cc(C(=O)O)ccc2C2CC2)c(OC2CC3(CC3)C2)cc1Cl [Example 34, 3-(N-(4-chloro-5-cyano-2-(spiro[2.3]hexan-5-yloxy)phenyl)sulfamoyl)-4-cyclopropylbenzoic acid]"
15,> 9.00,"N#Cc1cc(NS(=O)(=O)c2cc(C(=O)O)ccc2C2CC2)c(OC2CCCC2(F)F)cc1Cl (centres unmarked) [Example 83, 3-(N-(4-chloro-5-cyano-2-((2,2-difluorocyclopentyl)oxy)phenyl)sulfamoyl)-4-cyclopropylbenzoic acid]"
16,> 9.00,"N#Cc1cc(NS(=O)(=O)c2cc(C(=O)O)ccc2C2CC2)c(OC2CCCC2O)cc1Cl (racemic) [Example 98, 3-(N-(4-chloro-5-cyano-2-((cis-2-hydroxycyclopentyl)oxy)phenyl)sulfamoyl)-4-cyclopropylbenzoic acid]"
17,> 9.00,"N#Cc1cc(NS(=O)(=O)c2cc(C(=O)O)ccc2C2CC2)c(OC2CCCC2O)cc1Cl (racemic) [Example 59, 3-(N-(4-chloro-5-cyano-2-((trans-2-hydroxycyclopentyl)oxy)phenyl)sulfamoyl)-4-cyclopropylbenzoic acid]"
18,> 9.00,"N#Cc1cc(NS(=O)(=O)c2cc(C(=O)O)ccc2C2CC2)c(OC2CCC23CCC3)cc1Cl (centres unmarked) [Example 77, 3-(N-(4-chloro-5-cyano-2-(spiro[3.3]heptan-1-yloxy)phenyl)sulfamoyl)-4-cyclopropylbenzoic acid]"

# Further lines, the compound ahead of its results:
row,Compound,pIC50
1,"N#Cc1cc(NS(=O)(=O)c2cc(C(=O)O)ccc2C2CC2)c(OC2CCC2)cc1Cl [Example 12, 3-(N-(4-chloro-5-cyano-2-cyclobutoxyphenyl)sulfamoyl)-4-cyclopropylbenzoic acid]",> 9.00
2,"N#Cc1cc(NS(=O)(=O)c2cc(C(=O)O)ccc2C2CC2)c(OC2CCC2C2CC2)cc1Cl (single isomer, unassigned) [Example 133, 3-(N-(4-chloro-5-cyano-2-(2-cyclopropylcyclobutoxy)phenyl)sulfamoyl)-4-cyclopropylbenzoic acid]",8.30 to 9.00
3,"COC1CCC1Oc1cc(Cl)c(C#N)cc1NS(=O)(=O)c1cc(C(=O)O)ccc1C1CC1 (racemic) [Example 119, 3-(N-(4-chloro-5-cyano-2-(trans-2-methoxycyclobutoxy)phenyl)sulfamoyl)-4-cyclopropylbenzoic acid]",> 9.00
4,"Cc1oncc1-c1cc(NS(=O)(=O)c2cc(C(=O)O)ccc2C2CC2)c(OC2CCCC2)cc1F [Example 24, 3-(N-(2-(cyclopentyloxy)-4-fluoro-5-(5-methylisoxazol-4-yl)phenyl)sulfamoyl)-4-cyclopropylbenzoic acid]",> 9.00
5,"COC1CCC1Oc1cc(Cl)c(C#N)cc1NS(=O)(=O)c1cc(C(=O)O)ccc1C1CC1 (single isomer, unassigned) [Example 145, 3-(N-(4-chloro-5-cyano-2-(cis-2-methoxycyclobutoxy)phenyl)sulfamoyl)-4-cyclopropylbenzoic acid]",8.30 to 9.00
6,"N#Cc1cc(NS(=O)(=O)c2cc(C(=O)O)ccc2C2CC2)c(O[C@H]2C[C@@H](O)C2)cc1Cl [Example 112, 3-(N-(4-chloro-5-cyano-2-(cis-3-hydroxycyclobutoxy)phenyl)sulfamoyl)-4-cyclopropylbenzoic acid]",< 8.30
7,"CC1(C)CC(Oc2cc(Cl)c(C#N)cc2NS(=O)(=O)c2cc(C(=O)O)ccc2C2CC2)C1 [Example 33, 3-(N-(4-chloro-5-cyano-2-(3,3-dimethylcyclobutoxy)phenyl)sulfamoyl)-4-cyclopropylbenzoic acid]",> 9.00
8,"N#Cc1cc(NS(=O)(=O)c2cc(C(=O)O)ccc2C2CC2)c(OC2CCC2C2CC2)cc1Cl (single isomer, unassigned) [Example 130, 3-(N-(4-chloro-5-cyano-2-(2-cyclopropylcyclobutoxy)phenyl)sulfamoyl)-4-cyclopropylbenzoic acid]",8.30 to 9.00
9,"COC1CCC1Oc1cc(Cl)c(C#N)cc1NS(=O)(=O)c1cc(C(=O)O)ccc1C1CC1 (single isomer, unassigned) [Example 144, 3-(N-(4-chloro-5-cyano-2-(cis-2-methoxycyclobutoxy)phenyl)sulfamoyl)-4-cyclopropylbenzoic acid]",> 9.00
10,"CO[C@@H]1CCC[C@H]1Oc1cc(Cl)c(C#N)cc1NS(=O)(=O)c1cc(C(=O)O)ccc1C1CC1 [Example 109, 3-(N-(4-chloro-5-cyano-2-(((1R,2R)-2-methoxycyclopentyl)oxy)phenyl)sulfamoyl)-4-cyclopropylbenzoic acid]",> 9.00
11,"CO[C@H]1C[C@H](Oc2cc(Cl)c(C#N)cc2NS(=O)(=O)c2cc(C(=O)O)ccc2C2CC2)C1 [Example 95, 3-(N-(4-chloro-5-cyano-2-(trans-3-methoxycyclobutoxy)phenyl)sulfamoyl)-4-cyclopropylbenzoic acid]",< 8.30
12,"N#Cc1cc(NS(=O)(=O)c2cc(C(=O)O)ccc2C2CC2)c(O[C@H]2C[C@H](C#N)C2)cc1Cl [Example 55, 3-(N-(4-chloro-5-cyano-2-(trans-3-cyanocyclobutoxy)phenyl)sulfamoyl)-4-cyclopropylbenzoic acid]",8.30 to 9.00
13,"CC1(Oc2cc(Cl)c(C#N)cc2NS(=O)(=O)c2cc(C(=O)O)ccc2C2CC2)CCC1 [Example 62, 3-(N-(4-chloro-5-cyano-2-(1-methylcyclobutoxy)phenyl)sulfamoyl)-4-cyclopropylbenzoic acid]",> 9.00
14,"CC1CCC1Oc1cc(Cl)c(C#N)cc1NS(=O)(=O)c1cc(C(=O)O)ccc1C1CC1 (single isomer, unassigned) [Example 123, 3-(N-(4-chloro-5-cyano-2-(2-methylcyclobutoxy)phenyl)sulfamoyl)-4-cyclopropylbenzoic acid]",> 9.00
